In one data set the target is T1, α-glucosidase enzyme (Saccharomyces cerevisiae, UniProt P53341).
T1 construct: purchased Sigma-Aldrich, Munich, Germany
Briefly: biochemical. The format is biochemical. To be noted: for α-glucosidase inhibitory activity, in words: verbal rating in the SAR discussion. As for the experimental part: The solution of the α-glucosidase enzyme (obtained from Saccharomyces cerevisiae (Sigma-Aldrich, Munich, Germany)) was prepared in phosphate buffer (pH 6.8, 100 mM). The synthesized compounds were dissolved in dimethyl sulfoxide (DMSO). […] Afterwards, 40 μL of 5 mM p-nitrophenyl-α-D-glucopyranoside (Sigma-Aldrich, Munich, Germany) was poured into each well and further incubated for an additional half-hour. […] Acarbose (Sigma-Aldrich, Munich, Germany) and DMSO were used as reference inhibitors and negative control, respectively. The tests were conducted in triplicate and percent inhibitions were calculated using the following formula: % Inhibition = [(A control − A sample)/A control] × 100 where ‘A’ stands for absorbance.
The IC50 values of the synthesized compounds and acarbose were also determined.

“Also recorded” adds a separate entry of the source. Structures can show the parent of a compound that is named as a salt. Where two headings read alike, the source gives them in different places.

T1 sequence (P53341 whole entry): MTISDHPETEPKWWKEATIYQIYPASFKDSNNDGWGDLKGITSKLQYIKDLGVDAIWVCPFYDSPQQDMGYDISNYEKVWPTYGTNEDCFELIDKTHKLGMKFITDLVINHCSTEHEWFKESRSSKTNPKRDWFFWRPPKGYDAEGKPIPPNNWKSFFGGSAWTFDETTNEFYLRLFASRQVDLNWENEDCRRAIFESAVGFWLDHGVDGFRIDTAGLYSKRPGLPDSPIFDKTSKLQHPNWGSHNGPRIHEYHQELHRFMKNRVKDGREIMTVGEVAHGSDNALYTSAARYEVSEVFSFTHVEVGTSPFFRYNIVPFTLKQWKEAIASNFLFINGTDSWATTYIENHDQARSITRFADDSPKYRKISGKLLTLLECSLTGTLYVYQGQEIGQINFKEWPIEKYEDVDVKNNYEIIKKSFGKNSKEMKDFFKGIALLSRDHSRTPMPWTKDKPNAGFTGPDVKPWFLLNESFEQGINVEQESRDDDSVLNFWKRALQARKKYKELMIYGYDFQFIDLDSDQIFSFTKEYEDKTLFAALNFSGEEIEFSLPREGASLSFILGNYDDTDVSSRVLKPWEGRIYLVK

As for `Cc1n(Cc2ccccc2)c2ccccc2[n+]1CC(=O)Nc1ccccc1Br` (as salt: bromide) [Compound 10c, 1-Benzyl-3-[2-{(2-bromophenyl)amino)}-2-oxoethyl]-2-methyl-1H-benzo[d]imidazol-3-ium bromide], the melting point came to 252 °C.
`Cc1n(Cc2ccccc2)c2ccccc2[n+]1CC(=O)Nc1ccc([N+](=O)[O-])cc1` (as salt: bromide) [Compound 10h, 1-Benzyl-2-methyl-3-[2-{(4-nitrophenyl)amino)}-2-oxoethyl]-1H-benzo[d]imidazol-3-ium bromide]: the melting point is 222 to 224 °C.
As for `O=C(C[n+]1cn(Cc2ccccc2)c2ccccc21)Nc1cccc(Cl)c1.[Br-]` [Compound 9a, 1-Benzyl-3-[2-{(3-chlorophenyl)amino}-2-oxoethyl]-1H-benzo[d]imidazol-3-ium bromide], the melting point was in the range of 205 to 207 °C. On α-glucosidase enzyme, this compound yielded an IC50 of 150.7 ± 0.045 µM.
`O=C(C[n+]1cn(Cc2ccccc2)c2ccccc21)Nc1ccc(Cl)cc1.[Br-]` [Compound 9b, 1-Benzyl-3-[2-{(4-chlorophenyl)amino}-2-oxoethyl]-1H-benzo[d]imidazol-3-ium bromide]: the melting point lay in the range of 197 to 198 °C. The compound further registered an IC50 on α-glucosidase enzyme of 169.16 ± 0.023 µM.
For `O=C(C[n+]1cn(Cc2ccccc2)c2ccccc21)Nc1ccccc1Br.[Br-]` [Compound 9c, 1-Benzyl-3-[2-{(2-bromophenyl)amino}-2-oxoethyl]-1H-benzo[d]imidazol-3-ium bromide], the melting point was in the range of 192 to 194 °C. In addition, at α-glucosidase enzyme, the concentration for half-maximal inhibition (IC50) came to 70.01 ± 0.037 µM.
In the case of `O=C(C[n+]1cn(Cc2ccccc2)c2ccccc21)Nc1cccc(Br)c1.[Br-]` [Compound 9d, 1-Benzyl-3-[2-{(3-bromophenyl)amino}-2-oxoethyl]-1H-benzo[d]imidazol-3-ium bromide], the melting point was 176 to 178 °C. This compound also displayed a half-maximal inhibitory concentration (IC50) at α-glucosidase enzyme of 171.11 ± 0.089 µM.
For the compound `O=C(C[n+]1cn(Cc2ccccc2)c2ccccc21)Nc1ccc(Br)cc1` [Compound 9e, 1-Benzyl-3-[2-{(4-bromophenyl)amino)}-2-oxoethyl]-1H-benzo[d]imidazol-3-ium bromide], the IC50 at α-glucosidase enzyme (S. cerevisiae enzyme 0.5 U/mL, phosphate buffer pH 6.8, 37 °C, triplicate, read-out: IC50 α-glucosidase inhibition) came out at 198 ± 0.103 µM.
Regarding `O=C(C[n+]1cn(Cc2ccccc2)c2ccccc21)Nc1ccccc1[N+](=O)[O-].[Br-]` [Compound 9f, 1-Benzyl-3-[2-{(2-nitrophenyl)amino}-2-oxoethyl]-1H-benzo[d]imidazol-3-ium bromide], the melting point lay in the range of 142 to 143 °C. Further, it took 241 ± 0.027 µM to reach half-maximal inhibition at α-glucosidase enzyme (IC50).
On to `O=C(C[n+]1cn(Cc2ccccc2)c2ccccc21)Nc1cccc([N+](=O)[O-])c1.[Br-]` [Compound 9g, 1-Benzyl-3-[2-{(3-nitrophenyl)amino}-2-oxoethyl]-1H-benzo[d]imidazol-3-ium bromide], for which the melting point is 162 to 163 °C. On α-glucosidase enzyme, this compound yielded an IC50 of 215.73 ± 0.112 µM.
As for `O=C(C[n+]1cn(Cc2ccccc2)c2ccccc21)Nc1ccc([N+](=O)[O-])cc1.[Br-]` [Compound 9h, 1-Benzyl-3-[2{(4-nitrophenyl)amino}-2-oxoethyl]-1H-benzo[d]imidazol-3-ium bromide], the melting point was in the range of 152 to 153 °C.
Regarding `Cc1ccccc1NC(=O)C[n+]1cn(Cc2ccccc2)c2ccccc21.[Br-]` [Compound 9i, 1-Benzyl-3-{2-oxo-2-(o-tolylamino)ethyl}-1H-benzo[d]imidazol-3-ium bromide], the melting point is 162 to 163 °C. On α-glucosidase enzyme, this compound registered an IC50 of 259.86 ± 0.043 µM.
Take `Cc1cccc(NC(=O)C[n+]2cn(Cc3ccccc3)c3ccccc32)c1.[Br-]` [Compound 9j, 1-Benzyl-3-{2-oxo-2-(m-tolylamino)ethyl}-1H-benzo[d]imidazol-3-ium bromide]: the melting point lay in the range of 132 to 134 °C. At α-glucosidase enzyme, this compound gave a concentration for half-maximal inhibition (IC50) of 200.14 ± 0.039 µM.
For `Cc1ccc(NC(=O)C[n+]2cn(Cc3ccccc3)c3ccccc32)cc1.[Br-]` [Compound 9k, 1-Benzyl-3-{2-oxo-2-(p-tolylamino)ethyl}-1H-benzo[d]imidazol-3-ium bromide] the same measures were 148 to 149 °C and 201.13 ± 0.105 µM.
Regarding `COc1ccccc1NC(=O)C[n+]1cn(Cc2ccccc2)c2ccccc21.[Br-]` [Compound 9l, 1-Benzyl-3-[2-{(2-methoxyphenyl)amino}-2-oxoethyl]-1H-benzo[d]imidazol-3-ium bromide], the melting point was in the range of 188 to 189 °C. Moreover, the 50% inhibitory concentration (IC50) against α-glucosidase enzyme came out at 74.94 ± 0.028 µM.
For `COc1ccc(NC(=O)C[n+]2cn(Cc3ccccc3)c3ccccc32)cc1.[Br-]` [Compound 9m, 1-Benzyl-3-[2-{(4-methoxyphenyl)amino}-2-oxoethyl]-1H-benzo[d]imidazol-3-ium bromide], the melting point is 171 to 173 °C. On α-glucosidase enzyme, the IC50 turned out to be 279.28 ± 0.03 µM and the “α-glucosidase inhibitory activity, in words” value is “lowest α-glucosidase inhibitory results in their respective series”.
Take `Cc1n(Cc2ccccc2)c2ccccc2[n+]1CC(=O)Nc1cccc(Cl)c1.[Br-]` [Compound 10a, 1-Benzyl-3-[2-{(3-chlorophenyl)amino}-2-oxoethyl]-2-methyl-1H-benzo[d]imidazol-3-ium bromide]: the melting point is 210 to 213 °C. On α-glucosidase enzyme, the IC50 was determined as 22 ± 0.04 µM.
On to `Cc1n(Cc2ccccc2)c2ccccc2[n+]1CC(=O)Nc1ccc(Cl)cc1.[Br-]` [Compound 10b, 1-Benzyl-3-[2-{(4-chlorophenyl)amino}-2-oxoethyl]-2-methyl-1H-benzo[d]imidazol-3-ium bromide], for which the melting point is 178 to 180 °C. At α-glucosidase enzyme, this compound came in with an IC50 of 60 ± 0.041 µM.
As for `Cc1n(Cc2ccccc2)c2ccccc2[n+]1CC(=O)Nc1ccccc1Br` [Compound 10c, 1-Benzyl-3-[2-{(2-bromophenyl)amino)}-2-oxoethyl]-2-methyl-1H-benzo[d]imidazol-3-ium bromide], at α-glucosidase enzyme, the concentration for half-maximal inhibition (IC50) worked out at 46 ± 0.106 µM and the “α-glucosidase inhibitory activity, in words” value was “higher activity than acarbose”.
In the case of `Cc1n(Cc2ccccc2)c2ccccc2[n+]1CC(=O)Nc1cccc(Br)c1.[Br-]` [Compound 10d, 1-Benzyl-3-[2-{(3-bromophenyl)amino}-2-oxoethyl]-2-methyl-1H-benzo[d]imidazol-3-ium bromide], the melting point was 242 °C. In addition, on α-glucosidase enzyme, the IC50 came to 14 ± 0.013 µM and the “α-glucosidase inhibitory activity, in words” value was “higher activity than acarbose”. At α-glucosidase enzyme (from IC50 values versus acarbose), the “α-glucosidase inhibitory potential, fold higher than the standard drug acarbose” value stood at 4 fold.
Turning to `Cc1n(Cc2ccccc2)c2ccccc2[n+]1CC(=O)Nc1ccc(Br)cc1.[Br-]` [Compound 10e, 1-Benzyl-3-[2-{(4-bromophenyl)amino}-2-oxoethyl]-2-methyl-1H-benzo[d]imidazol-3-ium bromide], the melting point is 212 °C. Further, at α-glucosidase enzyme, the IC50 stood at 30 ± 0.049 µM and the “α-glucosidase inhibitory activity, in words” value is reported as “higher activity than acarbose”.
For `Cc1n(Cc2ccccc2)c2ccccc2[n+]1CC(=O)Nc1ccccc1[N+](=O)[O-].[Br-]` [Compound 10f, 1-Benzyl-2-methyl-3-[2-{(2-nitrophenyl)amino}-2-oxoethyl]-1H-benzo[d]imidazol-3-ium bromide], at α-glucosidase enzyme, the half-inhibitory concentration (IC50) amounted to 60 ± 0.025 µM and the “α-glucosidase inhibitory activity, in words” value is recorded as “considerable decline in activity”.
Compound `Cc1n(Cc2ccccc2)c2ccccc2[n+]1CC(=O)Nc1cccc([N+](=O)[O-])c1.[Br-]` [Compound 10g, 1-Benzyl-2-methyl-3-[2-{(3-nitrophenyl)amino}-2-oxoethyl]-1H-benzo[d]imidazol-3-ium bromide] showed a melting point of 180 to 182 °C. Also, at α-glucosidase enzyme, the IC50 was 19 ± 0.086 µM and the “α-glucosidase inhibitory activity, in words” value is recorded as “promising α-glucosidase inhibitory results”.
Turning to `Cc1n(Cc2ccccc2)c2ccccc2[n+]1CC(=O)Nc1ccc([N+](=O)[O-])cc1` [Compound 10h, 1-Benzyl-2-methyl-3-[2-{(4-nitrophenyl)amino)}-2-oxoethyl]-1H-benzo[d]imidazol-3-ium bromide], at α-glucosidase enzyme, the IC50 is 17 ± 0.067 µM and the “α-glucosidase inhibitory activity, in words” value was “promising α-glucosidase inhibitory results”.
Turning to `Cc1ccccc1NC(=O)C[n+]1c(C)n(Cc2ccccc2)c2ccccc21.[Br-]` [Compound 10i, 1-Benzyl-2-methyl-3-{2-oxo-2-(o-tolylamino)ethyl}-1H-benzo[d]imidazol-3-ium bromide], the melting point was 168 to 170 °C. In addition, on α-glucosidase enzyme, inhibition was half-maximal at 100 ± 0.048 µM (IC50) and the “α-glucosidase inhibitory activity, in words” value is “poor inhibitors; also recorded: lowest α-glucosidase inhibitory results in their respective series”.
`Cc1cccc(NC(=O)C[n+]2c(C)n(Cc3ccccc3)c3ccccc32)c1.[Br-]` [Compound 10j, 1-Benzyl-2-methyl-3-{2-oxo-2-(m-tolylamino)ethyl}-1H-benzo[d]imidazol-3-ium bromide] came in with a melting point of 192 to 194 °C. Besides, on α-glucosidase enzyme, half-maximal inhibition (IC50) was put at 60 ± 0.041 µM and the “α-glucosidase inhibitory activity, in words” value is listed as “poor inhibitors”.
`Cc1ccc(NC(=O)C[n+]2c(C)n(Cc3ccccc3)c3ccccc32)cc1.[Br-]` [Compound 10k, 1-Benzyl-2-methyl-3-{2-oxo-2-(p-tolylamino)ethyl}-1H-benzo[d]imidazol-3-ium bromide] had a melting point of 220 to 221 °C. Besides, on α-glucosidase enzyme, the IC50 is 32.27 ± 0.05 µM and the “α-glucosidase inhibitory activity, in words” value was “moderately active”.
On to `COc1ccccc1NC(=O)C[n+]1c(C)n(Cc2ccccc2)c2ccccc21.[Br-]` [Compound 10l, 1-Benzyl-3-[2-{(2-methoxyphenyl)amino}-2-oxoethyl]-2-methyl-1H-benzo[d]imidazol-3-ium bromide], for which the melting point was in the range of 244 to 246 °C. At α-glucosidase enzyme, this compound returned a half-inhibitory concentration (IC50) of 25 ± 0.011 µM.

For the origin of these results see PMC8400806, “Discovery of Amide-Functionalized Benzimidazolium Salts as Potent α-Glucosidase Inhibitors” (Molecules, 2021).
